Test results from patent US20240101576A1, “HETEROCYCLIC INHIBITORS OF EGFR AND/OR HER2, FOR USE IN THE TREATMENT OF CANCER” (Scorpion Therapeutics, Inc., priority 2020, published 2024).

Tests used:
Assay type in all cases: cell-based
[1] = biological target: T1, EGFR exon 20 FQEA Ins A763_V764 (Ba/F3 cells) (Homo sapiens, UniProt P00533, INS763FQEA); assay: Inhibitor activity on EGFR-dependent cell growth (CellTiter-Glo, 72 h), Ba/F3 EGFR exon 20 FQEA Ins; details: read-out: BaF3 FQEA IC50
T1 construct: expressed in transfected cells; host or cells: Ba/F3 (murine pro-B cells), retroviral transduction, puromycin selection, IL3-independent pool
Method in brief: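 Cell viability was measured by CellTiter-Glo after a three-day treatment. The IL3-free Ba/F3 lines carried L858R, L858R/C797S, exon 19 deletion or FQEA insertion EGFR and were seeded at 400, 600, 800 and 800 cells/well respectively.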

[2] = biological target: T2, EGFR exon 20 NPG Ins D770_N771 (Ba/F3 cells) (Homo sapiens, UniProt P00533, INS770NPG); assay: Inhibitor activity on EGFR-dependent cell growth (CellTiter-Glo, 72 h), Ba/F3 EGFR exon 20 NPG Ins; details: read-out: BaF3 NPG IC50
T2 construct: expressed in transfected cells; host or cells: Ba/F3 (murine pro-B cells), retroviral transduction, puromycin selection, IL3-independent pool
T2 sequence (P00533 with tags, fused parts or gaps INS770NPG): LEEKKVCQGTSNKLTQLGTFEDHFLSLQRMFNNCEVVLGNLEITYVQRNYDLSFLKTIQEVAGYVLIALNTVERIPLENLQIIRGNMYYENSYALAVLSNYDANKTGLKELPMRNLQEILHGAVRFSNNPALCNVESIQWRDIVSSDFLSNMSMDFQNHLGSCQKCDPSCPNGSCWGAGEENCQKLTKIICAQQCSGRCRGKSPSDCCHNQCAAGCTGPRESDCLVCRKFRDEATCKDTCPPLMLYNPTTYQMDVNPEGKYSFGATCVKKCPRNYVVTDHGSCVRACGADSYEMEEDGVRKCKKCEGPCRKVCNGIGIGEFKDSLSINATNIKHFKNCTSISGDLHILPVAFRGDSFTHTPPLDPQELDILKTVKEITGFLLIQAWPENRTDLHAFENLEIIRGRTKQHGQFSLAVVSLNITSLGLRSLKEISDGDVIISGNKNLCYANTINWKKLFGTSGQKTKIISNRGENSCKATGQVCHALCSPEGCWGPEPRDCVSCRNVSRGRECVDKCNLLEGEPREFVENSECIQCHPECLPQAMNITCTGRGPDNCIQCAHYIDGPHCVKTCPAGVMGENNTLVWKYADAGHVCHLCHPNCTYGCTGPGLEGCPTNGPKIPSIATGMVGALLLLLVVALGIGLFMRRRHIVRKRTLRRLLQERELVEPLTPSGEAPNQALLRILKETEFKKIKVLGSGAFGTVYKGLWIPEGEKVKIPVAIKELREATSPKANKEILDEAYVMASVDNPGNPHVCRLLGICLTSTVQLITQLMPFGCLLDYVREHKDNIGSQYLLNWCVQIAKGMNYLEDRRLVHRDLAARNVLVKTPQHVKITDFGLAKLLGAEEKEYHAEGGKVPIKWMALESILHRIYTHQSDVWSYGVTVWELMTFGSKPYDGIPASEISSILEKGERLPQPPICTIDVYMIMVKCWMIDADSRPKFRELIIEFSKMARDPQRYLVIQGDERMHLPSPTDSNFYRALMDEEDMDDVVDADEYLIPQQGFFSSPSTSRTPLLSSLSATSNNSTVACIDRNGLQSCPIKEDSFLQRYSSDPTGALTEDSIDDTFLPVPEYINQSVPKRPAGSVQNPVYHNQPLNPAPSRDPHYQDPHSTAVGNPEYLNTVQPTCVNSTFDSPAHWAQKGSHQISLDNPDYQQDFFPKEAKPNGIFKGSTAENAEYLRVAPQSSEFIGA
Method in brief: (§1)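 IC50s derive from a sigmoidal dose–response fit of CellTiter-Glo signal. The signal was normalised between […]-treated cells and cell-free medium. Ba/F3 mutant-EGFR cells, seeded at 400–800/well depending on the line, had 72 h of exposure to a 10-point, 3-fold compound series.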

[3] = biological target: T3, EGFR exon 20 ASV Ins V769_D770 (Ba/F3 cells) (Homo sapiens, UniProt P00533, INS769ASV); assay: Inhibitor activity on EGFR phosphorylation (pEGFR AlphaLISA, 2 h), Ba/F3 EGFR exon 20 ASV Ins
T3 construct: expressed in transfected cells; host or cells: Ba/F3 (murine pro-B cells), retroviral transduction, puromycin selection, IL3-independent pool
T3 sequence (P00533 with tags, fused parts or gaps INS769ASV): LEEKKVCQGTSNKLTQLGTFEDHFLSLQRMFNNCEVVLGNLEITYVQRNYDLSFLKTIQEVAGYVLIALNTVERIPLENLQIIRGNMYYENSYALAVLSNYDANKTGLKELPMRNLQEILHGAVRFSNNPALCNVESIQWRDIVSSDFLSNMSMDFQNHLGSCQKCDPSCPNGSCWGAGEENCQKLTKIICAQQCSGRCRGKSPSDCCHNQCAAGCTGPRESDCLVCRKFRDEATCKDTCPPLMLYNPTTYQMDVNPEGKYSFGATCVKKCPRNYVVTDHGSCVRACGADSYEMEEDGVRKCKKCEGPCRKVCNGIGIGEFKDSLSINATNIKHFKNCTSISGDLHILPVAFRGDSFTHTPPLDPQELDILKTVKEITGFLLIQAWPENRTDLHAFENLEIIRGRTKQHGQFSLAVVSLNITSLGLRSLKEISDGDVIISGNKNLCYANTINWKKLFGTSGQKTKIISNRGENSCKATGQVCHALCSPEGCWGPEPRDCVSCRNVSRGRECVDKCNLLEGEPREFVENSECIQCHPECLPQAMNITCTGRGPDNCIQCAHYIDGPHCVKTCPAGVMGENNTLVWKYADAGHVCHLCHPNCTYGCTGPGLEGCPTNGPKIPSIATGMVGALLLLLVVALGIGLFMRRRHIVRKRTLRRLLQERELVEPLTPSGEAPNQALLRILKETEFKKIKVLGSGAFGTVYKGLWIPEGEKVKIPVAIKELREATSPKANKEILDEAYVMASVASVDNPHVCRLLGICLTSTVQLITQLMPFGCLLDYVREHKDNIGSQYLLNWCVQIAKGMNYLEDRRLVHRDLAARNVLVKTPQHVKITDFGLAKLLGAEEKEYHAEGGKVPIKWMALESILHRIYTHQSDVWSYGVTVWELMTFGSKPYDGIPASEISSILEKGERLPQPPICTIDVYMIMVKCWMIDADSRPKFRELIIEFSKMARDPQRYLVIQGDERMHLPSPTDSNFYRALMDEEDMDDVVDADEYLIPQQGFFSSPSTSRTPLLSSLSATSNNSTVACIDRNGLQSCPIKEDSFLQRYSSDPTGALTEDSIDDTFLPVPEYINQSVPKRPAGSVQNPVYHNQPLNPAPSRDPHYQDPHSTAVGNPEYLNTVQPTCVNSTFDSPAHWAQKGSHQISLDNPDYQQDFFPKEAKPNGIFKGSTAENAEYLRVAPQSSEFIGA
From the text: Example B. Inhibitor Activity on EGFR phosphorylation (pEGFR)
EGFR mutant Ba/F3 cells were generated by transduction with retrovirus containing vectors expressing EGFR L858R, EGFR exon 19del, EGFR L858R/C797S, EGFR exon 20 NPG Ins D770_N771, EGFR exon 20 ASV Ins V769_D770, or EGFR exon 20 SVD Ins D770_N771 genes along with a puromycin selection marker. Transduced cells are selected with puromycin for 7 days and are then be transferred into culture media without Interleukin 3 (IL3). Surviving cells are confirmed to express EGFR by Western blot and maintained as a pool. CUTO14 cells were obtained from Dr. Robert C. Doebele at the University of Colorado. The IC50 date are included in Table 6 and Table 7.
1.1 Cells are harvested from flask into cell culture medium and the cell number counted.
1.2 Cells are diluted with culture medium to the desired density and 40 μL of cell suspension is added into each well of 384-well cell culture plate and the seeding density is 50K cells/well (Ba/F3) or 12.5K cells/well (CUTO14).
2 Compound Preparation and Treatment
2.1 Test compounds are dissolved to 10 mM in a DMSO stock solution. 45 μL of stock solution is transferred to a 384 polypropylene plate (pp-plate). Perform 3-fold, 10-point dilution via transferring 15 μL compound into 30 μL DMSO using a TECAN (EVO200) liquid handler.
2.2 Spin plates at room temperature at 1,000 RPM for 1 minute.
2.3 Transfer 5 nL of diluted compound from compound source plate into the cell plate.
2.4 After compound treatment for 2 hours, perform pEGFR detection by AlphaLISA for compound treatment plates as described in “Detection” section.
3 Detection by pEGFR AlphaLISA (Perkin-Elmer)
3.1 Plates are removed from incubators and equilibrated at room temperature for 10 minutes, and media was removed
3.2 10 μL of lysis buffer is added and plates shaken at 600 rpm for 1 hr.
3.3 Prepare acceptor mix just before use and dispense 5 μL of acceptor mix to all the wells. Shake 350 rpm for Ihr in the dark
3.4 Prepare donor mix under low light conditions prior to use. Dispense 5 μL of donor mix to all the wells. Mix well on the shaker, seal and wrap in aluminum foil and incubate 1.5 hrs at room temperature in the dark
3.5 Transfer 18.5 μL mixture to OptiPlate 384, and read using an Envision. The IC50 date were included in Table 6 and Table 7.

[4] = biological target: T4, EGFR WT (Ba/F3 cells) (Homo sapiens, UniProt P00533); assay: Inhibitor activity on EGFR-dependent cell growth (CellTiter-Glo, 72 h), Ba/F3 EGFR WT; details: read-out: BaF3 WT IC50
T4 construct: expressed in transfected cells; host or cells: Ba/F3 (murine pro-B cells), retroviral transduction, puromycin selection, maintained with EGF
T4 sequence (P00533 25-1210): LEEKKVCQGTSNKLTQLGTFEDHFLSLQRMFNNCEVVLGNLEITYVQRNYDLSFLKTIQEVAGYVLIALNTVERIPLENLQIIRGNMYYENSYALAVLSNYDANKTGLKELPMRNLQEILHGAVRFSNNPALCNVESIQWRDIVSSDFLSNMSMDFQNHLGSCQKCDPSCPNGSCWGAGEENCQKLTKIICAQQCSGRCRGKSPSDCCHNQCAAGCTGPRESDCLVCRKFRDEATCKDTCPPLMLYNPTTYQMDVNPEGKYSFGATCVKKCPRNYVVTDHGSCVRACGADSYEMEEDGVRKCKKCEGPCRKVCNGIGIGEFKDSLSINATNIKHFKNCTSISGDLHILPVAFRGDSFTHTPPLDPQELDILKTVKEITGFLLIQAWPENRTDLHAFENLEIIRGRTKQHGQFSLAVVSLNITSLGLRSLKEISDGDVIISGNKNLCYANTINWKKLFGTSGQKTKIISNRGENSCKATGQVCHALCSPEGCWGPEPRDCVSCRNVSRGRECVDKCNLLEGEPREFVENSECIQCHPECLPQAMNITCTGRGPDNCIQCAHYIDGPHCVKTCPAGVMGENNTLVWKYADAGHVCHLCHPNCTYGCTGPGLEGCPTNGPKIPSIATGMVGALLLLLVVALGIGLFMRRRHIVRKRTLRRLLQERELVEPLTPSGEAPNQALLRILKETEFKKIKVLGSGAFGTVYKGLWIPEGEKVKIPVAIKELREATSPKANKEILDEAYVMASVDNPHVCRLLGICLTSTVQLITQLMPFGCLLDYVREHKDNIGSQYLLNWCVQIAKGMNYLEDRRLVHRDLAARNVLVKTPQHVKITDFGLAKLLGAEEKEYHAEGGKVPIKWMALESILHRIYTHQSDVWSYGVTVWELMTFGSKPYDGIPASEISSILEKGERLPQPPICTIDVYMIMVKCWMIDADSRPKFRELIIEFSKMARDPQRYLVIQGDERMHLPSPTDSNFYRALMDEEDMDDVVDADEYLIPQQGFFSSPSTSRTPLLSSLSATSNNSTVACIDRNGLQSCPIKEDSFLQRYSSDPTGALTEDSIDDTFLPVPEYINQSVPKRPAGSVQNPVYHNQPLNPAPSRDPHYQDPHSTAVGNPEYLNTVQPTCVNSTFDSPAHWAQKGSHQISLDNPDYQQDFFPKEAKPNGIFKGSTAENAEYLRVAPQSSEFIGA
Method in brief: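 This growth assay used Ba/F3 cells that depend on wild-type EGFR and are kept in EGF without IL3. Compounds were made up as 10 mM DMSO stocks and diluted 3-fold over 10 points. 120 nL went onto 600 cells/well. After 72 hours, 40 μL CellTiter-Glo was added and luminescence read on EnVision after 30 min.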

[5] = biological target: T5, EGFR exon 20 SVD Ins D770_N771 (Ba/F3 cells) (Homo sapiens, UniProt P00533, INS770SVD); assay: Inhibitor activity on EGFR-dependent cell growth (CellTiter-Glo, 72 h), Ba/F3 EGFR exon 20 SVD Ins; details: read-out: BaF3 SVD IC50
T5 construct: expressed in transfected cells; host or cells: Ba/F3 (murine pro-B cells), retroviral transduction, puromycin selection, IL3-independent pool
T5 sequence (P00533 with tags, fused parts or gaps INS770SVD): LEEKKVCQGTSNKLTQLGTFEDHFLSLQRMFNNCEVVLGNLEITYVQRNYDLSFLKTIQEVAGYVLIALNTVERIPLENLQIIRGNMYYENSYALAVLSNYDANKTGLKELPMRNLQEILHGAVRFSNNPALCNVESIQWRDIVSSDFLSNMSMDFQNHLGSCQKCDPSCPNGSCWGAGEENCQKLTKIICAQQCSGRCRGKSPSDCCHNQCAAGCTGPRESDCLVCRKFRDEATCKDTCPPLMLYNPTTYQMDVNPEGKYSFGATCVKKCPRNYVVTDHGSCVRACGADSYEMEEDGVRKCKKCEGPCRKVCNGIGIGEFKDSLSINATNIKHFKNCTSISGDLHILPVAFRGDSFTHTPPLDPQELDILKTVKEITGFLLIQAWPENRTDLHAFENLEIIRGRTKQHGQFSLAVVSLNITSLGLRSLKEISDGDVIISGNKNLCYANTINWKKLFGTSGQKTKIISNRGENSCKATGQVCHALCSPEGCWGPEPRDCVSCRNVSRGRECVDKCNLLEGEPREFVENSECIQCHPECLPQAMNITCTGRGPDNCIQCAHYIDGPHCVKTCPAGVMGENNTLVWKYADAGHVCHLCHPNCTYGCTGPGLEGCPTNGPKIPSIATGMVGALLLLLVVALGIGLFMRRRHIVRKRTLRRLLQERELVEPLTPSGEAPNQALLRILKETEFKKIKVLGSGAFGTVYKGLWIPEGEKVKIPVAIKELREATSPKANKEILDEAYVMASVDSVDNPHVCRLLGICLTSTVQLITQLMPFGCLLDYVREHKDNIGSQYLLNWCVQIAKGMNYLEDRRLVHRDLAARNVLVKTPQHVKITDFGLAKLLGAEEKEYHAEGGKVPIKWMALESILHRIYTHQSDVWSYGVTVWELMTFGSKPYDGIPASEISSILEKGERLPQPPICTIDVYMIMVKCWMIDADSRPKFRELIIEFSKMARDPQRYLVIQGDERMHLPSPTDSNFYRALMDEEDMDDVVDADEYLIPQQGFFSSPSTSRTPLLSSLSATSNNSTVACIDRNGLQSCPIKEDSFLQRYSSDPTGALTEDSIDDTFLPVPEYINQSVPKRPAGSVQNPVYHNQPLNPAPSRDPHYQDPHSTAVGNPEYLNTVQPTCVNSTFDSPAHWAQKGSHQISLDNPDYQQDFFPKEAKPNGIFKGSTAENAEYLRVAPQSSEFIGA
Method in brief: as §1

[6] = biological target: T3, EGFR exon 20 ASV Ins V769_D770 (Ba/F3 cells); assay: Inhibitor activity on EGFR-dependent cell growth (CellTiter-Glo, 72 h), Ba/F3 EGFR exon 20 ASV Ins; details: read-out: BaF3 ASV IC50
Method in brief: as §1

[7] = EGFR phosphorylation, AlphaLISA, 2 hours, read-out: ASV IC50 (pEGFR)

Row | IC50 [1] [nM] | IC50 [2] [nM] | IC50 [3, 7] [nM] | IC50 [4] [nM] | IC50 [5] [nM] | IC50 [6] [nM] | Compound | IC50 [3] [nM]
1 | 100 to 1000 | < 100 | < 100 | 100 to 1000 | – | – | Cc1c(Cl)cccc1Nc1c(-c2ccnc(N)n2)[nH]c2c1C(=O)NCC2 [compound 725, 2-(2-aminopyrimidin-4-yl)-3-[(3-chloro-2-methylphenyl)amino]-1H,5H,6H,7H-pyrrolo[3,2-c]pyridin-4-one; trifluoroacetic acid] | –
2 | 100 to 1000 | 100 to 1000 | 100 to 1000 | > 1000 | – | – | COc1c(Nc2c(-c3ccnc(N)n3)[nH]c3c2C(=O)NCC3)cccc1C(F)(F)F [Compound 698, 2-(2-aminopyrimidin-4-yl)-3-[[2-methoxy-3-(trifluoromethyl)phenyl]amino]-1H,5H,6H,7H-pyrrolo[3,2-c]pyridin-4-one] | –
3 | > 1000 | – | > 1000 | > 1000 | > 1000 | > 1000 | COc1c(Cl)cccc1Nc1c(-c2ccnc3[nH]c(=O)oc23)[nH]c2c1C(=O)NCC2 [compound 293] | –
4 | > 1000 | – | > 1000 | > 1000 | > 1000 | > 1000 | COc1cc(Cl)cc(Nc2c(-c3ccnc(N)n3)[nH]c3c2C(=O)NCC3)c1 [compound 302] | –
5 | > 1000 | – | > 1000 | > 1000 | > 1000 | > 1000 | COc1c(Cl)cccc1Nc1c(-c2ccnc(NCC(C)(C)O)n2)[nH]c2c1C(=O)NCC2 [compound 288] | –
6 | > 1000 | – | > 1000 | > 1000 | > 1000 | > 1000 | Cc1c(C#N)cccc1Nc1c(-c2ccnc(N)n2)[nH]c2c1C(=O)NCC2 [compound 201] | –
7 | 100 to 1000 | – | 100 to 1000 | 100 to 1000 | 100 to 1000 | 100 to 1000 | Nc1nccc(-c2[nH]c3c(c2Nc2cc(F)cc(F)c2)C(=O)NCC3)n1 [compound 204] | –
8 | > 1000 | – | 100 to 1000 | > 1000 | > 1000 | > 1000 | COc1c(F)cccc1Nc1c(-c2ccnc(N)c2)[nH]c2c1C(=O)NCC2 [compound 242] | –
9 | 100 to 1000 | – | 100 to 1000 | > 1000 | > 1000 | > 1000 | Cc1ccc(F)cc1Nc1c(-c2ccnc(N)n2)[nH]c2c1C(=O)NCC2 [compound 196] | –
10 | > 1000 | – | 100 to 1000 | > 1000 | > 1000 | > 1000 | N#Cc1c(F)cccc1Nc1c(-c2ccnc(N)n2)[nH]c2c1C(=O)NCC2 [compound 200] | –
11 | > 1000 | – | > 1000 | > 1000 | > 1000 | > 1000 | CC#Cc1cccc(Nc2c(-c3ccnc(N)n3)[nH]c3c2C(=O)NCC3)c1OC [Compound 704, 2-(2-aminopyrimidin-4-yl)-3-[[2-methoxy-3-(prop-1-yn-1-yl)phenyl]amino]-1H,5H,6H,7H-pyrrolo[3,2-c]pyridin-4-one] | –
12 | 100 to 1000 | – | < 100 | > 1000 | 100 to 1000 | 100 to 1000 | COc1c(F)cc(F)cc1Nc1c(-c2ccnc(N)n2)[nH]c2c1C(=O)NCC2 [compound 304] | –
13 | > 1000 | – | 100 to 1000 | > 1000 | 100 to 1000 | > 1000 | COc1c(Nc2c(-c3ccnc(N)n3)[nH]c3c2C(=O)NCC3)ccc(F)c1F [compound 303] | –
14 | 100 to 1000 | – | < 100 | > 1000 | 100 to 1000 | 100 to 1000 | CSc1c(Cl)cccc1Nc1c(-c2ccnc(N)n2)[nH]c2c1C(=O)NCC2 [Compound 715, 2-(2-aminopyrimidin-4-yl)-3-[[3-chloro-2-(methylsulfanyl)phenyl]amino]-1H,5H,6H,7H-pyrrolo[3,2-c]pyridin-4-one] | –
15 | > 1000 | – | > 1000 | > 1000 | > 1000 | > 1000 | COc1c(F)cccc1Nc1c(-c2nnc3cc(C)ccn23)[nH]c2c1C(=O)NCC2 [compound 246] | –
16 | 100 to 1000 | – | < 100 | 100 to 1000 | < 100 | < 100 | COc1c(Cl)cccc1Nc1c(-c2ccnc(N)n2)[nH]c2c1C(=O)NC[C@H]2C [186b] | –
17 | > 1000 | – | > 1000 | > 1000 | > 1000 | > 1000 | Cc1cc(F)ccc1Nc1c(-c2ccnc(N)n2)[nH]c2c1C(=O)NCC2 [compound 197] | –
18 | > 1000 | – | 100 to 1000 | > 1000 | > 1000 | > 1000 | COc1c(F)cccc1Nc1c(-c2ccncn2)[nH]c2c1C(=O)NCC2 [compound 244] | –
19 | 100 to 1000 | – | < 100 | > 1000 | 100 to 1000 | 100 to 1000 | COc1c(Cl)cccc1Nc1c(-c2ccnc(N)n2)[nH]c2c1C(=O)N[C@@H](C)C2 [187a] | –
20 | < 100 | – | < 100 | < 100 | < 100 | < 100 | COc1c(F)cccc1Nc1c(-c2ccnc3ccc(NC4(C)CC4)nc23)[nH]c2c1C(=O)NCC2 [Compound 695, 3-[(3-fluoro-2-methoxyphenyl)amino]-2-[6-[(1-methylcyclopropyl)amino]-1,5-naphthyridin-4-yl]-1H,5H,6H,7H-pyrrolo[3,2-c]pyridin-4-one; formic acid] | –
21 | > 1000 | – | 100 to 1000 | > 1000 | > 1000 | > 1000 | Nc1nccc(-c2[nH]c3c(c2Nc2cccc4scnc24)C(=O)NCC3)n1 [compound 718, 2-(2-aminopyrimidin-4-yl)-3-(1,3-benzothiazol-4-ylamino)-1H,5H,6H,7H-pyrrolo[3,2-c]pyridin-4-one; trifluoroacetic acid] | –
22 | 100 to 1000 | 100 to 1000 | < 100 | > 1000 | – | – | CCc1c(Cl)cccc1Nc1c(-c2ccnc(N)n2)[nH]c2c1C(=O)NCC2 [compound 297] | –
23 | 100 to 1000 | – | 100 to 1000 | > 1000 | > 1000 | > 1000 | Nc1nccc(-c2[nH]c3c(c2Nc2cccc4c2OCO4)C(=O)NCC3)n1 [compound 306] | –

Row | Compound | IC50 [1] [nM] | IC50 [2] [nM] | IC50 [3, 7] [nM] | IC50 [4] [nM] | IC50 [5] [nM] | IC50 [6] [nM] | IC50 [3] [nM]
24 | Nc1nccc(-c2[nH]c3c(c2Nc2cccc(Cl)c2F)C(=O)NCC3)n1 [Compound 706, 2-(2-aminopyrimidin-4-yl)-3-[(3-chloro-2-fluorophenyl)amino]-1H,5H,6H,7H-pyrrolo[3,2-c]pyridin-4-one] | 100 to 1000 | < 100 | – | 100 to 1000 | – | – | < 100
